Measured values taken from paper PMC8876135, “The Catestatin-Derived Peptides Are New Actors to Fight the Development of Oral Candidosis” (International Journal of Molecular Sciences, 2022).
In brackets after ≈: the same amount, converted by molar mass. Residues, ends and D or L forms follow the SMILES beside them.

What was measured:
[1] = test system: C. albicans; settings: 24 h, 4 µM
Description: Each Candida strain was first plated on agar plates and cultured for 24 h at 37 °C. After incubation, one colony per isolate was transferred into 5 mL of Sabouraud medium pH 5.6 (Sigma-Aldrich, Le Pont-de-Claix, France) supplemented with tetracycline (10 μg/mL) and cefotaxime (10 μg/mL) and incubated aerobically under agitation at 37 °C for 24 h. The resulting cultures were resuspended at an absorbance of 0.001 (OD600nm = 0.001) in Sabouraud medium. The OD600nm was evaluated with a spectrophotometer (BIO-RAD Smatspec^TM plus, Schiltigheim, France). In preliminary experiments, we tested RPMI-1640 culture and Sabouraud media. […] Therefore, Sabouraud medium was used in the present study.
(§1) The yeasts (OD600nm = 0.001) were then plated on 96-well microplates and treated with different concentrations of the peptides of interest. After 24 h incubation at 37 °C under agitation, yeast growth was assessed by optical density (OD600nm) using a microplate spectrophotometer (Multiscan EX, Thermo Fisher Scientific, Waltham, MA, USA). All tests were performed in triplicate.
The same method was used to evaluate the MICs of peptide/bovine serum albumin combinations (BSA).

[2] = test system: Candida tropicalis “R”; type: cell-based; settings: 24 h, pH 5.6
Description: (§2) Strains of Candida albicans, Candida tropicalis and Candida glabrata, frequently found in cases of oral candidosis, were tested for L-bCtl and D-bCtl antimicrobial activity. The sensitive strain of C. albicans (ATCC 10231^TM) was provided by ATCC (Manassas, VA, USA). The resistant strain of C. albicans, the sensitive and resistant strains of C. tropicalis as well as the sensitive and resistant strains of C. glabrata were kindly provided by Dr Valérie Letscher-Bru (Laboratory of Parasitolology and Medical Mycology, Strasbourg, France).
(§3) Each Candida strain was first plated on agar plates and cultured for 24 h at 37 °C. After incubation, one colony per isolate was transferred into 5 mL of Sabouraud medium pH 5.6 (Sigma-Aldrich, Le Pont-de-Claix, France) supplemented with tetracycline (10 μg/mL) and cefotaxime (10 μg/mL) and incubated aerobically under agitation at 37 °C for 24 h. The resulting cultures were resuspended at an absorbance of 0.001 (OD600nm = 0.001) in Sabouraud medium. The OD600nm was evaluated with a spectrophotometer (BIO-RAD Smatspec^TM plus, Schiltigheim, France). In preliminary experiments, we tested RPMI-1640 culture and Sabouraud media. Similar data were obtained but the experiments were more reproducible with Sabouraud than with RPMI1640. Therefore, Sabouraud medium was used in the present study.
as §1, with “triplicate. The MIC (minimal inhibitory concentration), defined as the lowest concentration of drug able to inhibit 100% of the growth of a pathogen, was determined for the different peptides against all previously described Candida strains, using a modified Gompertz model.” for “triplicate.”

[3] = test system: Candida albicans “R”; type: cell-based; settings: 24 h, pH 5.6
Description: as §2, §3
as §1, with “triplicate. The MIC (minimal inhibitory concentration), defined as the lowest concentration of drug able to inhibit 100% of the growth of a pathogen, was determined for the different peptides against all previously described Candida strains, using a modified Gompertz model.” for “triplicate.”

[4] = test system: Candida tropicalis “S”; type: cell-based; settings: 24 h, pH 5.6
Description: as §2, §3
as §1, with “triplicate. The MIC (minimal inhibitory concentration), defined as the lowest concentration of drug able to inhibit 100% of the growth of a pathogen, was determined for the different peptides against all previously described Candida strains, using a modified Gompertz model.” for “triplicate.”

[5] = test system: Candida glabrata “R”; type: cell-based; settings: 24 h, pH 5.6
Description: as §2, §3
as §1, with “triplicate. The MIC (minimal inhibitory concentration), defined as the lowest concentration of drug able to inhibit 100% of the growth of a pathogen, was determined for the different peptides against all previously described Candida strains, using a modified Gompertz model.” for “triplicate.”

[6] = test system: Candida albicans “S” (ATCC 10231); type: cell-based; settings: ATCC 10231, 24 h, pH 5.6
Description: as §2, §3
as §1, with “triplicate. The MIC (minimal inhibitory concentration), defined as the lowest concentration of drug able to inhibit 100% of the growth of a pathogen, was determined for the different peptides against all previously described Candida strains, using a modified Gompertz model.” for “triplicate.”

[7] = test system: Candida glabrata “S”; type: cell-based; settings: 24 h, pH 5.6
Description: as §2, §3
as §1, with “triplicate. The MIC (minimal inhibitory concentration), defined as the lowest concentration of drug able to inhibit 100% of the growth of a pathogen, was determined for the different peptides against all previously described Candida strains, using a modified Gompertz model.” for “triplicate.”

[8] = cited from earlier work
From the text: Host-defense peptides (HDPs) have emerged as new attractive candidates in the development of new antimicrobial agents. In addition, HDPs have been proven to be potent immune effectors via the orchestration of immune responses.

Row | SMILES | inhibition [1] | MIC Candida tropicalis “R” [2] [µg/mL] | MIC C. albicans “R” [3] [µg/mL] | MIC Candida tropicalis “S” [4] [µg/mL] | MIC Candida glabrata “R” [5] [µg/mL] | MIC C. albicans “S” [6] [µg/mL] | MIC Candida glabrata “S” [7] [µg/mL] | stability to bacterial degradation [8]
1 | CSCC[C@H](NC(=O)[C@H](CO)NC(=O)[C@@H](N)CCCNC(=N)N)C(=O)N[C@@H](CCCNC(=N)N)C(=O)N[C@@H](CC(C)C)C(=O)N[C@@H](CO)C(=O)N[C@@H](Cc1ccccc1)C(=O)N[C@@H](CCCNC(=N)N)C(=O)N[C@@H](C)C(=O)N[C@@H](CCCNC(=N)N)C(=O)NCC(=O)N[C@@H](Cc1ccc(O)cc1)C(=O)NCC(=O)N[C@@H](Cc1ccccc1)C(=O)N[C@@H](CCCNC(=N)N)C(=O)NCC(=O)N1CCC[C@H]1C(=O)NCC(=O)N[C@@H](CC(C)C)C(=O)N[C@@H](CCC(N)=O)C(=O)N[C@@H](CC(C)C)C(=O)O [bCts] (H-RSMRLSFRARGYGFRGPGLQL-OH) | more than 90% | 20 (≈ 8.24 µM) | 50 (≈ 20.6 µM) | 50 (≈ 20.6 µM) | >100 | 30 (≈ 12.4 µM) | >100 | 
2 | CSCC[C@H](NC(=O)[C@H](CO)NC(=O)[C@@H](N)CCCNC(=N)N)C(=O)N[C@@H](CCCNC(=N)N)C(=O)N[C@@H](CC(C)C)C(=O)N[C@@H](CO)C(=O)N[C@@H](Cc1ccccc1)C(=O)N[C@@H](CCCNC(=N)N)C(=O)N[C@@H](C)C(=O)N[C@@H](CCCNC(=N)N)C(=O)NCC(=O)N[C@@H](Cc1ccc(O)cc1)C(=O)NCC(=O)N[C@@H](Cc1ccccc1)C(=O)N[C@@H](CCCNC(=N)N)C(=O)O [bCtl] (H-RSMRLSFRARGYGFR-OH) |  | 2.0 (≈ 1.08 µM) | 9.6 (≈ 5.16 µM) | 9.8 (≈ 5.27 µM) | 61.4 (≈ 33 µM) |  | 38.2 (≈ 20.5 µM) | resists bacterial degradation
